Results from patent US8188059B2, “Compounds and methods for modulating expression of GCGR” (Isis Pharmaceuticals, Inc., priority 2006, dated 2012).
Strand notation (5' to 3'): a small letter for the sugar, then the base; units joined by * are phosphorothioate-linked, units joined directly phosphodiester-linked; [ ] holds rarer units or linkages, { } end groups; capitals alone tell only the bases. e = 2'-O-(2-methoxyethyl) (MOE); [5mC] = 5-methylcytosine; d = 2'-deoxy (DNA)

Key:
PCSK9 mRNA [1] = assay: Dose-dependent inhibition of PCSK9 in Hep3B cells with EC50 (Example 19, Table 76); format: cell-based, human
Protocol: Short antisense compounds targeted to a PCSK9 nucleic acid were tested in a dose response experiment Hep3B cells. After the treatment period, RNA was isolated from the cells and PCSK9 mRNA levels were measured by quantitative real-time PCR, as described herein. PCSK9 mRNA levels were normalized to cyclophilin mRNA levels, as measured by real-time PCR using a cyclophilin-specific primer probe set. Results are presented as percent inhibition of PCSK9, relative to untreated control cells. […] As illustrated in the following table, PCSK9 mRNA levels were reduced in a dose-dependent manner.

PCSK9 mRNA [2] = format: cell-based, human; conditions: Hep3B cells, 100 nM, relative to untreated control cells; for % Inhib (PCSK9 mRNA): 0 = no reduction observed
Protocol: When cells reached appropriate confluency, they were treated with oligonucleotide using LIPOFECTIN® as described. […] Cells were treated and data were obtained in duplicate or triplicate. […] Cells were harvested 16-24 hours after oligonucleotide treatment.
Short antisense compounds targeted to a PCSK9 nucleic acid were tested for their effects on PCSK9 mRNA in vitro. The Isis No, gapmer motif and SEQ ID NO of each short antisense compound are shown again in Table 75. Cultured Hep3B cells were treated with 100 nM of short antisense compound. 5-10-5 MOE gapmers targeted to a PCSK9 nucleic acid were used as positive controls. After the treatment period, RNA was isolated from the cells and PCSK9 mRNA levels were measured by quantitative real-time PCR, as described herein. PCSK9 mRNA levels were adjusted according to total RNA content as measured by RIBOGREEN®. Results are presented in Table 75 as percent inhibition of PCSK9 (% Inhib), relative to untreated control cells.

SGLT2 mRNA = SGLT2 mRNA levels in kidney of Balb/c mice, twenty 1-10-1 MOE gapmers at 350 nmol/kg, PPS 534 and PPS 553 (Example 18, Table 74); format: in vivo, mouse; conditions: 350 nmol/kg i.p. twice per week for two weeks
Protocol: Twenty 1-10-1 MOE gapmers that are complementary to human/monkey/mouse/rat SGLT2 were designed, synthesized and tested in vivo for suppression of SGLT2 mRNA levels in kidney. Data are averages from two experiments in which male 6-week old Balb/c mice were administered intraperitoneal injections of 350 nmol/kg of oligonucleotide, twice per week, over a period of two weeks (a total of four injections). Mice were sacrificed 48 hours following the last administration and evaluated for SGLT2 mRNA levels in kidney. SGLT2 mRNA levels were determined by quantitative real-time PCR analysis according to standard procedures, using two different PCR primer probe sets, primer probe set (PPS) 534 and PPS 553. SGLT2 mRNA levels were normalized to cyclophilin mRNA levels, which were also measured by quantitative real-time PCR.

Substance | % Inhibition of PCSK9 (PCSK9 mRNA [1]; 5 nM) | % Inhibition of PCSK9 (PCSK9 mRNA [1]; 10 nM) | % Inhibition of PCSK9 (PCSK9 mRNA [1]; 20 nM) | % Inhibition of PCSK9 (PCSK9 mRNA [1]; 40 nM) | % Inhibition of PCSK9 (PCSK9 mRNA [1]; 80 nM) | % Inhibition of PCSK9 (PCSK9 mRNA [1]; 160 nM) | % Inhibition Range (PCSK9 mRNA) (PCSK9 mRNA [2]) | % Inhib (PCSK9 mRNA) (PCSK9 mRNA [2]) | SGLT2 mRNA in kidney, % change relative to saline (SGLT2 mRNA; primer probe set 534) | SGLT2 mRNA in kidney, % change relative to saline (SGLT2 mRNA; primer probe set 553)
400309 (e[5mC]*e[5mC]*d[5mC]*dG*dG*d[5mC]*d[5mC]*dG*d[5mC]*dT*dG*dA*e[5mC]*e[5mC]; antisense) [compound 400309] | 49% | 23% | 38% | 12% | 72% | 78% | 40-50% | 44% |  | 
379701 (antisense e[5mC]*d[5mC]*dA*dT*dG*dG*dT*dG*dA*dA*dG*eA) [compound 379701] |  |  |  |  |  |  |  |  | −0.3% | −11.9%
400307 (e[5mC]*eG*dG*d[5mC]*d[5mC]*dG*d[5mC]*dT*dG*dA*d[5mC]*d[5mC]*eA*e[5mC]; antisense) [compound 400307] | 35% | 39% | 45% | 56% | 92% | 93% | 70-80% | 76% |  | 
379689 (antisense eA*dG*dA*dG*d[5mC]*dG*d[5mC]*dA*dT*dT*d[5mC]*e[5mC]) [compound 379689] |  |  |  |  |  |  |  |  | −17.5% | −30.4%
370717 (antisense eT*dA*dG*d[5mC]*d[5mC]*dA*d[5mC]*d[5mC]*dA*dA*d[5mC]*eT) [compound 370717] |  |  |  |  |  |  |  |  | −84.4% | −84.3%
400327 (eG*eT*d[5mC]*d[5mC]*d[5mC]*d[5mC]*dA*dA*dA*dG*dT*d[5mC]*e[5mC]*e[5mC]; antisense) [compound 400327] | 5% | 37% | 23% | 49% | 43% | 55% | 30-40% | 36% |  | 
379688 (antisense e[5mC]*d[5mC]*dA*dA*dG*d[5mC]*d[5mC]*dA*d[5mC]*dT*dT*eG) [compound 379688] |  |  |  |  |  |  |  |  | −62.6% | −70.4%
379684 (antisense eT*dG*dT*d[5mC]*dA*dG*d[5mC]*dA*dG*dG*dA*eT) [compound 379684] |  |  |  |  |  |  |  |  | −45.0% | −43.2%
379690 (antisense eA*d[5mC]*dA*dG*dG*dT*dA*dG*dA*dG*dG*e[5mC]) [compound 379690] |  |  |  |  |  |  |  |  | −18.9% | −22.5%
379693 (antisense e[5mC]*dA*dT*dG*dG*dT*dG*dA*dT*dG*d[5mC]*e[5mC]) [compound 379693] |  |  |  |  |  |  |  |  | −51.6% | −59.9%
379700 (antisense e[5mC]*d[5mC]*dA*dG*d[5mC]*dA*dT*dG*dA*dG*dT*e[5mC]) [compound 379700] |  |  |  |  |  |  |  |  | −2.8% | −16.4%
